According to patent US20090022803A1, “Oral Formulations For Delivery of Catecholic Butanes Including Ndga Compounds” (priority 2005, published 2009):
Where two headings read alike, the source gives them in different places.

Type: physicochemical
Procedure: A 10 mL solution of M4N at a concentration of about 10 mg/mL in 40% BP-β-CD was made as follows. About 10 mL of the 40% HP-β-CD solution were added to a glass beaker containing a stir bar. The beaker was placed on a magnetic plate and the stir bar was set to stir at medium speed. About […] of M4N were slowly added to the 40% HP-β-CD in the center of the beaker with the aid of a spatula. The M4N/40% HP-β-CD mixture was stirred for 2 hr or until all M4N was uniformly suspended without any clumps being present. The M4N/40% HP-β-CD mixture was optionally heated at 80° C. for about 30 min. (or longer if a larger volume of solution was desired, for example, 1 hr at 80° C. for 100 mL of the M4N/HP-β-CD mixture), or longer as needed to ensure complete dissolution of M4N. […] The final M4N/40% HP-β-CD solution was stored at room temperature and was kept protected from light. This process may be scaled up or down to obtain the requisite volume or concentration of M4N. Formulations containing M4N in other cyclodextrin solutions may be similarly made, such as, for example, by substituting HP-β-CD in the process described above with other cyclodextrins. […]
A 10 mL solution of M4N at a concentration of about 10 mg/mL in 50% HP-β-CD/0.5% HPMC was made as follows. About 10 mL of the 50% HP-β-CD/0.5% HPMC solution were added to a glass beaker containing a stir bar. The beaker was placed on a magnetic plate and the stir bar was set to stir at medium speed. About 100 mg of M4N were slowly added to the 50% HP-β-CD/0.5% HPMC in the center of the beaker with the aid of a spatula. The M4N/50% HP-β-CD/0.5% HPMC mixture was stirred for 24 hr or until all M4N was uniformly suspended without any clumps being present. The M4N/50% HP-β-CD/0.5% HPMC mixture was heated at about 90° C. for about 30 min. (or longer if a larger volume of solution was desired, for example, 1 hr at 90° C. for 500 mL of the M4N/50% HP-β-CD/0.5% HPMC mixture), or longer as needed to ensure complete dissolution of M4N. […] The final M4N/50% HP-β-CD/0.5% HPMC solution was stored at room temperature and was kept protected from light.
A 10 mL solution of M4N at a concentration of about 20 mg/mL in 5% EC (w/v) (the “EC formulation”) was made as follows. About 10 mL of 5% EC formulation, made as described above, were added to a glass beaker containing a stir bar. The beaker was placed on a magnetic plate and the stir bar was set to stir at medium speed, and covered with a round Teflon® cover. About 200 mg of M4N were slowly added to the 5% EC formulation in the center of the beaker with the aid of a spatula to prevent M4N from sticking to the beaker wall. The M4N/EC mixture was stirred for 2 hr or until all M4N had dissolved or was uniformly suspended without any clumps being present. The M4N/EC mixture was heated at about 60° C. for about 30 min. (or longer if a larger volume of solution was desired, for example, 1 hr at 60° C. for 500 mL of the M4N/EC mixture), or longer as needed to ensure complete dissolution of M4N. […] The final M4N/EC solution was stored at room temperature and was kept protected from light.
A 10 mL solution of M4N at a concentration of about 50 mg/mL in sesame oil was made as follows. About 10 mL of sesame oil were added to a glass beaker containing a stir bar. The beaker was placed on a magnetic plate and the stir bar was set to stir at medium speed. About 500 mg of M4N were slowly added to the sesame oil in the center of the beaker with the aid of a spatula to prevent M4N from sticking to the beaker wall. The M4N/sesame oil mixture was stirred for about 2 hr or until all M4N had dissolved or was uniformly suspended without any clump being present. The M4N/sesame oil mixture was heated at about 60° C. for about 30 min. (or longer if a larger volume of solution was desired, for example, 1 hr at 60° C. for 500 mL of the M4N/sesame oil mixture), or longer as need to ensure complete dissolution of M4N. […]

[1] = M4N 10 mg/mL in 32% HP-β-CD, 20% PEG 400 (v/v)
[2] = M4N 10 mg/mL in 40% HP-β-CD, 1% PVP (w/v)
[3] = M4N 10 mg/mL in 40% HP-β-CD, 5% PEG 400 (v/v)
[4] = M4N 10 mg/mL in 50% HP-β-CD in saline
[5] = M4N 10 mg/mL in 50% HP-β-CD, 0.5% HPMC
[6] = M4N 10 mg/mL in 50% HP-β-CD, 1.25% PVP (w/v)
[7] = M4N 12.5 mg/mL in 12.5% HP-β-CD, 50% PEG 300 (v/v)
[8] = M4N 12.5 mg/mL in 12.5% HP-β-CD, 50% PEG 400 (v/v)
[9] = M4N 12.5 mg/mL in 15% HP-β-CD, 50% PEG 300 (v/v)
[10] = M4N 12.5 mg/mL in 15% HP-β-CD, 50% PEG 400 (v/v)
[11] = M4N 12.5 mg/mL in 20% HP-β-CD, 50% PEG 300 (v/v)
[12] = M4N 12.5 mg/mL in 20% HP-β-CD, 50% PEG 400 (v/v)
[13] = M4N 12.5 mg/mL in 30% HP-β-CD, 25% PEG 400 (v/v)
[14] = M4N 12.9 mg/mL in 23% HP-β-CD, 43% PEG 400 (v/v)
[15] = M4N 12.9 mg/mL in 23% HP-β-CD, 43 PEG 300 (v/v)
[16] = M4N 13.3 mg/mL in 27% HP-β-CD, 33% PEG 300 (v/v)
Wherever Dissolution After Cool Down is given: key: N represents 'No'; Y represents 'Yes.'.

COc1ccc(C[C@@H](C)[C@@H](C)Cc2ccc(OC)c(OC)c2)cc1OC [Formulation M4N, meso-1,4-bis(3,4-dimethoxyphenyl)-2,3-dimethylbutane]
Y at 90°: Dissolution After Heating at X° C. (M4N 10 mg/mL in 50% HP-β-CD in saline, 90°) | Dissolution After Heating at X° C. (M4N 10 mg/mL in 50% HP-β-CD, 90°)
N: Dissolution After Rotation [1] | Dissolution After Rotation (M4N 10 mg/mL in 40% HP-β-CD) | Dissolution After Heating at X° C. [2] | Dissolution After Rotation [2] | Dissolution After Rotation (M4N 10 mg/mL in 40% HP-β-CD, 2.5% PG (v/v)) | Dissolution After Cool Down [3] | Dissolution After Rotation [3] | Dissolution After Rotation (M4N 10 mg/mL in 50% HP-β-CD) | Dissolution After Rotation [4] | Dissolution After Rotation [5] | Dissolution After Heating at X° C. [6] | Dissolution After Rotation [6] | Dissolution After Rotation (M4N 12 mg/mL in 40% HP-β-CD) | Dissolution After Rotation [7] | Dissolution After Rotation [8] | Dissolution After Rotation [9] | Dissolution After Rotation [10] | Dissolution After Rotation [11] | Dissolution After Rotation [12] | Dissolution After Rotation [13] | Dissolution After Rotation [14] | Dissolution After Rotation [15] | Dissolution After Rotation [16]
Y at 80°: Dissolution After Heating at X° C. (M4N 10 mg/mL in 40% HP-β-CD, 80°)
N at 80°: Dissolution After Heating at X° C. (M4N 10 mg/mL in 40% HP-β-CD, 2.5% PG (v/v), 80°) | Dissolution After Heating at X° C. (M4N 12 mg/mL in 40% HP-β-CD, 80°)
Y: Dissolution After Cool Down [1] | Dissolution After Cool Down (M4N 10 mg/mL in 40% HP-β-CD) | Dissolution After Cool Down (M4N 10 mg/mL in 50% HP-β-CD) | Dissolution After Cool Down [4] | Dissolution After Cool-Down [5] | Dissolution After Cool-Down (M4N 10 mg/mL in Corn Oil) | Dissolution After Cool-Down (M4N 10 mg/mL in Mineral Oil) | Dissolution After Cool-Down (M4N 10 mg/mL in Soybean Oil) | Dissolution After Cool Down [7] | Dissolution After Cool Down [8] | Dissolution After Cool Down [9] | Dissolution After Cool Down [10] | Dissolution After Cool Down [11] | Dissolution After Cool Down [12] | Dissolution After Cool Down [13] | Dissolution After Cool Down [14] | Dissolution After Cool Down [15] | Dissolution After Cool Down [16]
Y at 60 °C: Dissolution After Heating at X° C. (M4N 12.9 mg/mL in 23% HP-β-CD, 43% PEG 400 (v/v), 60° C.)
Suspension: Dissolution After Rotation (M4N 10 mg/mL in 50% HP-β-CD, 0.5% HPMC, other experiment, no heat)
Y at 60°: Dissolution After Heating at X° C. (M4N 10 mg/mL in 32% HP-β-CD, 20% PEG 400 (v/v), 60°) | Dissolution After Heating at X° C. (M4N 10 mg/mL in 40% HP-β-CD, 5% PEG 400 (v/v), 60°) | Dissolution After Heating at X° C. (M4N 12.5 mg/mL in 12.5% HP-β-CD, 50% PEG 300 (v/v), 60°) | Dissolution After Heating at X° C. (M4N 12.5 mg/mL in 12.5% HP-β-CD, 50% PEG 400 (v/v), 60°) | Dissolution After Heating at X° C. (M4N 12.5 mg/mL in 15% HP-β-CD, 50% PEG 300 (v/v), 60°) | Dissolution After Heating at X° C. (M4N 12.5 mg/mL in 15% HP-β-CD, 50% PEG 400 (v/v), 60°) | Dissolution After Heating at X° C. (M4N 12.5 mg/mL in 20% HP-β-CD, 50% PEG 300 (v/v), 60°) | Dissolution After Heating at X° C. (M4N 12.5 mg/mL in 20% HP-β-CD, 50% PEG 400 (v/v), 60°) | Dissolution After Heating at X° C. (M4N 12.5 mg/mL in 30% HP-β-CD, 25% PEG 400 (v/v), 60°) | Dissolution After Heating at X° C. (M4N 12.9 mg/mL in 23% HP-β-CD, 43 PEG 300 (v/v), 60°) | Dissolution After Heating at X° C. (M4N 13.3 mg/mL in 27% HP-β-CD, 33% PEG 300 (v/v), 60°)
